This is an account of results in US20060142356A1, “Novel therapeutic method and compositions for topical administration” (priority 2003, published 2006).

SMILES strings stand for the structures. Read-outs that look alike come from different tables or passages of the source.

A short description of series [1]: Peak plasma concentration after oral dosing of farglitazar. The format is in vivo, human. The text has this: Z is expressed in units of ng/ml and is the target local free (i.e. unbound) concentration that is expected to have a therapeutic effect against the skin condition. In the case of PPAR gamma agonists, Z should correspond to the peak plasma free drug concentration generated by dosing these drugs orally to treat effectively Type II diabetes mellitus. The appropriate value of Z may be determined experimentally in vivo by conventional known means using standard protocols.
The value Z for farglitazar is 0.31 ng/ml [Peak plasma concentration for a 5 mg dose is about 157 ng/ml; 0.31 is 157*(100-99.8)/100].

Series [2] is described as follows: Rate of clearance of the drug substance (total systemic clearance). The format is in vivo. As to conditions: human, plasma; in adults. An excerpt:
C is expressed in units of ml/hr and is the rate of clearance of the drug substance. Clearance may be determined experimentally in vivo by conventional known means using standard tests. For example it can be determined from the plasma concentration in response to a defined input of drug using the equation given below: Clearance (ml/hr)=Input rate (ng/hr)/Total plasma concentration (ng/ml)

Series [3] is described as follows: Plasma bound fraction. The format is in vitro ADME. An excerpt:
PBF is the plasma bound fraction. Plasma bound fraction may be determined experimentally in vitro by conventional known means using standard tests (preferably a method employing equilibrium dialysis).

The subject of series [4] is fasting plasma glucose in patients with type II diabetes. The settings on record: cited from earlier work.

One may read the clearance as the volume of plasma or blood freed of the substance per unit of time. Low values mean inefficient removal, high ones efficient removal. Regarding `Cc1oc(-c2ccccc2)nc1CCOc1ccc(C[C@H](Nc2ccccc2C(=O)c2ccccc2)C(=O)O)cc1` [farglitazar, N-(2-benzoylphenyl)-O-[2-(5-methyl-2-phenyl-4-oxazolyl)ethyl]-L-tyrosine], the Peak plasma concentration entry in series [1] (5 mg dose, total drug) is “about 157 ng/ml”. Further, in series [1] (157*(100-99.8)/100, 5 mg dose), the “Z, target local free (unbound) concentration = peak plasma free drug concentration” value worked out at 0.31 ng/mL. Further, the clearance in series [2] is 250 mL/min. The Plasma bound fraction in series [3] turned out to be 99.8%.
With `CN(CCOc1ccc(CC2SC(=O)NC2=O)cc1)c1ccccn1` (stereo not drawn) [rosiglitazone, 5-[4-[2-(N-methyl-N-(2-pyridyl)amino)ethoxy]benzyl]thiazolidine-2,4-dione], the “Time to achieve a reduction of fasting plasma glucose by 2 mmol/l” value in series [4] (2 mg b.i.d. dosage regimen) was “about 8 weeks”; in series [4] (4 mg b.i.d. dosage regimen), “about 4 weeks”.
